Data reported in PubChem BioAssay AID2060503 (Molecular Pharmacology Branch, DTP, NCI, 2025).

Tested on: 817829-284-R-J1-PDC complex spheroids, viability
Assay: Anticancer human tumor 817829-284-R-J1-PDC patient-derived colon adenocarcinoma cell line growth inhibition [GQUAD]
Settings: for IC50: curve of first compound; for viability, T/C: stronger effect = lower value; active = viability on the fitted dose curve at most 10% of control; inactive = the rest
Method in brief: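 Tumor cells were grown as complex spheroids with HUVEC endothelial cells and mesenchymal stem cells as stroma. G-quadruplex stabilizers were combined with targeted agents over half-log dilutions from near the clinical Cmax, or from 10 microM.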

[1] = second compound 0.0316 µM, first compound 0.000999 µM
[2] = second compound 0.0316 µM, first compound 0.00316 µM
[3] = second compound 0.0316 µM, first compound 0.00999 µM
[4] = second compound 0.0316 µM, first compound 0.0316 µM
[5] = second compound 0.0316 µM, first compound 0.0999 µM
[6] = second compound 0.0316 µM, first compound 0.316 µM
[7] = second compound 0.1 µM, first compound 0.000999 µM
[8] = second compound 0.1 µM, first compound 0.00316 µM
[9] = second compound 0.1 µM, first compound 0.00999 µM
[10] = second compound 0.1 µM, first compound 0.0316 µM
[11] = second compound 0.1 µM, first compound 0.0999 µM
[12] = second compound 0.1 µM, first compound 0.316 µM
[13] = second compound 0.316 µM, first compound 0.000999 µM
[14] = second compound 0.316 µM, first compound 0.00316 µM
[15] = second compound 0.316 µM, first compound 0.00999 µM
[16] = second compound 0.316 µM, first compound 0.0316 µM
[17] = second compound 0.316 µM, first compound 0.0999 µM
[18] = second compound 0.316 µM, first compound 0.316 µM
[19] = second compound 1 µM, first compound 0.000999 µM
[20] = second compound 1 µM, first compound 0.00316 µM
[21] = second compound 1 µM, first compound 0.00999 µM
[22] = second compound 1 µM, first compound 0.0316 µM
[23] = second compound 1 µM, first compound 0.0999 µM
[24] = second compound 1 µM, first compound 0.316 µM
[25] = second compound 3.16 µM, first compound 0.000999 µM
[26] = second compound 3.16 µM, first compound 0.00316 µM
[27] = second compound 3.16 µM, first compound 0.00999 µM
[28] = second compound 3.16 µM, first compound 0.0316 µM
[29] = second compound 3.16 µM, first compound 0.0999 µM
[30] = second compound 3.16 µM, first compound 0.316 µM
[31] = second compound 10 µM, first compound 0.000999 µM
[32] = second compound 10 µM, first compound 0.00316 µM
[33] = second compound 10 µM, first compound 0.00999 µM
[34] = second compound 10 µM, first compound 0.0316 µM
[35] = second compound 10 µM, first compound 0.0999 µM
[36] = second compound 10 µM, first compound 0.316 µM
[37] = second compound 0.0316 µM, first compound 0.1 µM
[38] = second compound 0.0316 µM, first compound 1 µM
[39] = second compound 0.0316 µM, first compound 3.16 µM
[40] = second compound 0.0316 µM, first compound 10 µM
[41] = second compound 0.1 µM, first compound 0.1 µM
[42] = second compound 0.1 µM, first compound 1 µM
[43] = second compound 0.1 µM, first compound 3.16 µM
[44] = second compound 0.1 µM, first compound 10 µM
[45] = second compound 0.316 µM, first compound 0.1 µM
[46] = second compound 0.316 µM, first compound 1 µM
[47] = second compound 0.316 µM, first compound 3.16 µM
[48] = second compound 0.316 µM, first compound 10 µM
[49] = second compound 1 µM, first compound 0.1 µM
[50] = second compound 1 µM, first compound 1 µM
[51] = second compound 1 µM, first compound 3.16 µM
[52] = second compound 1 µM, first compound 10 µM
[53] = second compound 3.16 µM, first compound 0.1 µM
[54] = second compound 3.16 µM, first compound 1 µM
[55] = second compound 3.16 µM, first compound 3.16 µM
[56] = second compound 3.16 µM, first compound 10 µM
[57] = second compound 10 µM, first compound 0.1 µM
[58] = second compound 10 µM, first compound 1 µM
[59] = second compound 10 µM, first compound 3.16 µM
[60] = second compound 10 µM, first compound 10 µM
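Also: spheroids exposed to agents for 7 days before readout.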
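For viability, T/C in this document: percent viability relative to DMSO vehicle control taken as 100%.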

Cc1[nH]c2ccccc2c1CCNCc1ccc(/C=C/C(=O)NO)cc1 + CN(C)c1ccc(Nc2c3ccc(NC(=O)CCN4CCCC4)cc3nc3cc(NC(=O)CCN4CCCC4)ccc23)cc1
active: viability, T/C [5] 3.89% | viability, T/C [6] 0.19% | viability, T/C [11] 3.79% | viability, T/C [12] 0.12% | viability, T/C [17] 3.89% | viability, T/C [18] 0.11% | viability, T/C [23] 4.37% | viability, T/C [24] 0.14% | viability, T/C [29] 5.12% | viability, T/C [30] 0.15% | viability, T/C [35] 1.95% | viability, T/C [36] 0.22%
47.7 nM: IC50 (second compound 3.16 µM)
inactive: viability, T/C [1] 108% | viability, T/C [2] 99.3% | viability, T/C [3] 126% | viability, T/C [4] 86.1% | viability, T/C [7] 89.8% | viability, T/C [8] 110% | viability, T/C [9] 109% | viability, T/C [10] 72.3% | viability, T/C [13] 94.1% | viability, T/C [14] 115% | viability, T/C [15] 117% | viability, T/C [16] 75.3% | viability, T/C [19] 104% | viability, T/C [20] 100% | viability, T/C [21] 126% | viability, T/C [22] 88.4% | viability, T/C [25] 96.1% | viability, T/C [26] 99.2% | viability, T/C [27] 119% | viability, T/C [28] 76.1% | viability, T/C [31] 99.2% | viability, T/C [32] 113% | viability, T/C [33] 78.6% | viability, T/C [34] 27.2%
52.1 nM: IC50 (second compound 0.0316 µM)
45.7 nM: IC50 (second compound 0.1 µM)
47.1 nM: IC50 (second compound 0.316 µM)
19.1 nM: IC50 (second compound 10 µM)
53.3 nM: IC50 (second compound 1 µM)

Cn1ncnc1[C@H]1c2n[nH]c(=O)c3cc(F)cc(c23)N[C@@H]1c1ccc(F)cc1 + CN(C)c1ccc(Nc2c3ccc(NC(=O)CCN4CCCC4)cc3nc3cc(NC(=O)CCN4CCCC4)ccc23)cc1
inactive: viability, T/C [1] 91.3% | viability, T/C [2] 112% | viability, T/C [3] 112% | viability, T/C [4] 95% | viability, T/C [5] 85.1% | viability, T/C [6] 68.9% | viability, T/C [7] 95.6% | viability, T/C [8] 105% | viability, T/C [9] 95.4% | viability, T/C [10] 94% | viability, T/C [11] 86.2% | viability, T/C [12] 80% | viability, T/C [13] 95.8% | viability, T/C [14] 104% | viability, T/C [15] 95.8% | viability, T/C [16] 101% | viability, T/C [17] 97.7% | viability, T/C [18] 78.6% | viability, T/C [19] 90% | viability, T/C [20] 99% | viability, T/C [21] 99.6% | viability, T/C [22] 92.6% | viability, T/C [23] 90.4% | viability, T/C [24] 71.8% | viability, T/C [25] 92.2% | viability, T/C [26] 99.7% | viability, T/C [27] 90.6% | viability, T/C [28] 89.2% | viability, T/C [29] 104% | viability, T/C [30] 79.9% | viability, T/C [31] 97.2% | viability, T/C [32] 97.3% | viability, T/C [33] 89.6% | viability, T/C [34] 81.2% | viability, T/C [35] 79.1% | viability, T/C [36] 63.4%
> 316 nM: IC50 (second compound 0.0316 µM) | IC50 (second compound 0.1 µM) | IC50 (second compound 0.316 µM) | IC50 (second compound 1 µM) | IC50 (second compound 3.16 µM) | IC50 (second compound 10 µM)

Cc1cccc(N(C)C(=O)C2C(O)CCN2c2nc(C)cc(C(F)(F)F)c2C#N)c1 (stereo not drawn) + Cc1[nH]c2ccc(F)cc2c1-c1nc2c3cccnc3c3ncccc3c2[nH]1
> 10000 nM: IC50 (second compound 0.0316 µM) | IC50 (second compound 0.1 µM) | IC50 (second compound 0.316 µM) | IC50 (second compound 1 µM) | IC50 (second compound 3.16 µM) | IC50 (second compound 10 µM)
inactive: viability, T/C [4] 103% | viability, T/C [37] 86.2% | viability, T/C [6] 99.9% | viability, T/C [38] 78% | viability, T/C [39] 97.6% | viability, T/C [40] 95.3% | viability, T/C [10] 78.9% | viability, T/C [41] 97.7% | viability, T/C [12] 89.7% | viability, T/C [42] 102% | viability, T/C [43] 101% | viability, T/C [44] 105% | viability, T/C [16] 90.9% | viability, T/C [45] 116% | viability, T/C [18] 99.3% | viability, T/C [46] 115% | viability, T/C [47] 111% | viability, T/C [48] 100% | viability, T/C [22] 96.6% | viability, T/C [49] 103% | viability, T/C [24] 106% | viability, T/C [50] 98.7% | viability, T/C [51] 100% | viability, T/C [52] 90% | viability, T/C [28] 94.9% | viability, T/C [53] 96.1% | viability, T/C [30] 82.5% | viability, T/C [54] 99.2% | viability, T/C [55] 98.2% | viability, T/C [56] 96.7% | viability, T/C [34] 83.3% | viability, T/C [57] 96.4% | viability, T/C [36] 96.4% | viability, T/C [58] 55.3% | viability, T/C [59] 82.6% | viability, T/C [60] 63.2%

CC(C)(O)C1CCC(Nc2ccc3ncc(-c4cccc(C(F)(F)F)c4)n3n2)CC1 (stereo not drawn) + Cc1[nH]c2ccc(F)cc2c1-c1nc2c3cccnc3c3ncccc3c2[nH]1
1310 nM: IC50 (second compound 0.1 µM)
955 nM: IC50 (second compound 0.316 µM)
620 nM: IC50 (second compound 1 µM)
active: viability, T/C [28] 3.3% | viability, T/C [53] 3.58% | viability, T/C [30] 2.98% | viability, T/C [54] 1.34% | viability, T/C [55] 0.58% | viability, T/C [56] 1.69% | viability, T/C [34] 2.48% | viability, T/C [57] 2.78% | viability, T/C [36] 2.18% | viability, T/C [58] 1.41% | viability, T/C [59] 0.83% | viability, T/C [60] 1.5%
< 31.6 nM: IC50 (second compound 3.16 µM) | IC50 (second compound 10 µM)
2500 nM: IC50 (second compound 0.0316 µM)
inactive: viability, T/C [4] 109% | viability, T/C [37] 104% | viability, T/C [6] 88.8% | viability, T/C [38] 64% | viability, T/C [39] 32.5% | viability, T/C [40] 57.5% | viability, T/C [10] 94.6% | viability, T/C [41] 110% | viability, T/C [12] 104% | viability, T/C [42] 51.9% | viability, T/C [43] 25.5% | viability, T/C [44] 61.6% | viability, T/C [16] 106% | viability, T/C [45] 111% | viability, T/C [18] 84.5% | viability, T/C [46] 52% | viability, T/C [47] 25.7% | viability, T/C [48] 54.1% | viability, T/C [22] 107% | viability, T/C [49] 109% | viability, T/C [24] 78.9% | viability, T/C [50] 30.9% | viability, T/C [51] 8.2% | viability, T/C [52] 32.7%
